The values that follow come from patent EP2951180B1, “2,6,7,8 SUBSTITUTED PURINES AS HDM2 INHIBITORS” (Merck Sharp & Dohme Corp., priority 2013, dated 2014).

The target in the assay is T1, HDM2 (Homo sapiens, UniProt Q00987).
T1 construct: Thioredoxin (N); made in house; host or cells: E. coli strain BL21(DE3)Rosetta
T1 sequence (Q00987 17-125): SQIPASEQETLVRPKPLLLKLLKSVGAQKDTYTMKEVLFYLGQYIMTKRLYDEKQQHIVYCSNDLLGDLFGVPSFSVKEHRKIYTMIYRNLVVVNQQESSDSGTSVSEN
The assay is described as follows: HDM2 FRET assay (inhibition of binding of FITC labeled p53-pocket peptide to HDM2). As to conditions: Table 22; read-out: FRET IC50. An outline of the steps:
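Compounds were tested in 10-point serial dilution against 0.5 nM recombinant HDM2 binding 3 nM fluorescein-labeled p53-pocket peptide. Detection used 0.25 nM terbium cryptate anti-6xHis antibody in PBS buffer containing 0.01% BSA and 0.01% Tween-20.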
As usually defined, the IC50 is the concentration at which inhibition is half-maximal. For `C[C@@H](Nc1nc(-c2noc(=O)[nH]2)nc2nc(C(C)(O)C(C)(C)C)n(C[C@H]3CC[C@H](C)CC3)c12)C1CCC1` (stereo partly drawn) [Example 22.2, 3-(6-{[(1R)-1-cyclobutylethyl]amino}-8-(1-hydroxy-1,2,2-trimethylpropyl)-7-[(trans-4-methylcyclohexyl)methyl]-7H-purin-2-yl)-1,2,4-oxadiazol-5(4H)-one], the IC50 worked out at 10.6 nM. The same measure for `C[C@@H](Nc1nc(-c2noc(=O)[nH]2)nc2nc(C3(c4ccccc4F)CC3)n(C[C@H]3CC[C@H](C)CC3)c12)C1CCC1` [Example 22.5, 3-(6-{[(1R)-1-cyclobutylethyl]amino}-8-[1-(2-fluorophenyl)cyclopropyl]-7-[(trans-4-methylcyclohexyl)methyl]-7H-purin-2-yl)-1,2,4-oxadiazol-5(4H)-one]: 3.57 nM; for `C[C@@H](Nc1nc(-c2noc(=O)[nH]2)nc2nc(C3(c4ccccn4)CC3)n(C[C@H]3CC[C@H](C)CC3)c12)C1CCC1` [Example 22.10, 3-[6-{[(1R)-1-cyclobutylethyl]amino}-7-[(trans-4-methylcyclohexyl)methyl]-8-(1-pyridin-2-ylcyclopropyl)-7H-purin-2-yl]-1,2,4-oxadiazol-5(4H)-one]: 6.29 nM; for `C=C(c1nc2nc(-c3noc(=O)[nH]3)nc(N[C@H](C)C3CCC3)c2n1C[C@H]1CC[C@H](C)CC1)C(C)(C)C` [Example 22.11, 3-(6-{[(1R)-1-cyclobutylethyl]amino}-8-(2,2-dimethyl-1-methylidenepropyl)-7-[(trans-4-methylcyclohexyl)methyl]-7H-purin-2-yl)-1,2,4-oxadiazol-5(4H)-one]: 5.73 nM. Take `C[C@@H](Nc1nc(-c2noc(=O)[nH]2)nc2nc(CC(C)(C)O)n(C[C@H]3CC[C@H](C)CC3)c12)C1CCC1` [Example 22.16, 3-(6-{[(1R)-1-cyclobutylethyl]amino}-8-(2-hydroxy-2-methylpropyl)-7-[(trans-4-methylcyclohexyl)methyl]-7H-purin-2-yl)-1,2,4-oxadiazol-5(4H)-one]: the IC50 stood at 55.6 nM. For `C[C@@H](Nc1nc(-c2noc(=O)[nH]2)nc2nc(C(=O)c3ccccc3)n(C[C@H]3CC[C@H](C)CC3)c12)C1CCC1` [Example 22.21, 3-[6-{[(1R)-1-cyclobutylethyl]amino}-7-[(trans-4-methylcyclohexyl)methyl]-8-(phenylcarbonyl)-7H-purin-2-yl]-1,2,4-oxadiazol-5(4H)-one] the value was 1 nM; for `C[C@@H](Nc1nc(-c2n[nH]c(=O)o2)nc2nc(C(=O)c3ccccc3)n(C[C@H]3CC[C@H](C)CC3)c12)C1CCC1` [Example 22.22, 5-[6-{[(1R)-1-cyclobutylethyl]amino}-7-[(trans-4-methylcyclohexyl)methyl]-8-(phenylcarbonyl)-7H-purin-2-yl]-1,3,4-oxadiazol-2(3H)-one], 3.93 nM; for `C[C@@H](Nc1nc(-c2noc(=O)[nH]2)nc2nc(C(O)c3ccccc3)n(C[C@H]3CC[C@H](C)CC3)c12)C1CCC1` (stereo partly drawn) [Example 22.29, 3-(6-{[(1R)-1-cyclobutylethyl]amino}-8-[hydroxy(phenyl)methyl]-7-[(trans-4-methylcyclohexyl)methyl] -7H-purin-2-yl)-1,2,4-oxadiazol-5(4H)-one], 1.66 nM.

For `C[C@@H](Nc1nc(-c2noc(=O)[nH]2)nc2nc(C3(c4ccc(F)cc4)CC3)n(C[C@H]3CC[C@H](C)CC3)c12)C1CCC1` [Example 22.30, 3-(6-{[(1R)-1-cyclobutylethyl]amino}-8-[1-(4-fluorophenyl)cyclopropyl] -7-[(trans-4-methylcyclohexyl)methyl] -7H-purin-2-yl)-1,2,4-oxadiazol-5(4H)-one], the IC50 amounted to 10.1 nM. For `C[C@@H](Nc1nc(-c2noc(=O)[nH]2)nc2nc(C(=O)C3CCOCC3)n(C[C@H]3CC[C@H](C)CC3)c12)C1CCC1` [Example 22.31, 3-[6-{[(1R)-1-cyclobutylethyl]amino}-7-[(trans-4-methylcyclohexyl)methyl] -8-(tetrahydro-2H-pyran-4-ylcarbonyl)-7H-purin-2-yl]-1,2,4-oxadiazol-5(4H)-one] the value was 6.45 nM; for `CC(=O)c1nc2nc(-c3noc(=O)[nH]3)nc(N[C@H](C)C3CCC3)c2n1C[C@H]1CC[C@H](C)CC1` [Example 22.32, 3-(8-acetyl-6-{[(1R)-1-cyclobutylethyl]amino}-7-[(trans-4-methylcyclohexyl)methyl] -7H-purin-2-yl)-1,2,4-oxadiazol-5(2H)-one], 25.3 nM.

As to `C=C(c1nc2nc(-c3noc(=O)n3C)nc(N[C@H](C)C3CCC3)c2n1C[C@H]1CC[C@H](C)CC1)C(C)(C)C` [Example 22.33, 3-(6-{[(1R)-1-cyclobutylethyl]amino}-8-(2,2-dimethyl-1-methylidenepropyl)-7-[(trans-4-methylcyclohexyl)methyl] -7H-purin-2-yl)-4-methyl-1,2,4-oxadiazol-5(4H)-one], the IC50 is 291 nM. For `C[C@@H](Nc1nc(-c2noc(=O)[nH]2)nc2nc(C(O)C3CCOCC3)n(C[C@H]3CC[C@H](C)CC3)c12)C1CCC1` (stereo partly drawn) [Example 22.34, 3-(6-{[(1R)-1-cyclobutylethyl]amino}-8-[hydroxy(tetrahydro-2H-pyran-4-yl)methyl]-7-[(trans-4-methylcyclohexyl)methyl] -7H-purin-2-yl)-1,2,4-oxadiazol-5(4H)-one] the value was 24.6 nM; for `C[C@@H](Nc1nc(-c2noc(=O)[nH]2)nc2nc(C(C)(O)c3ccncc3)n(C[C@H]3CC[C@H](C)CC3)c12)C1CCC1` (stereo partly drawn) [Example 22.36, 3-(6-{[(1R)-1-cyclobutylethyl]amino}-8-(1-hydroxy-1-pyridin-4-ylethyl)-7-[(trans-4-methylcyclohexyl)methyl] -7H-purin-2-yl)-1,2,4-oxadiazol-5(4H)-one], 13.6 nM; for `C[C@@H](Nc1nc(-c2noc(=O)[nH]2)nc2nc(C(C)(O)C3CCOCC3)n(C[C@H]3CC[C@H](C)CC3)c12)C1CCC1` (stereo partly drawn) [Example 22.38, 3-(6-{[(1R)-1-cyclobutylethyl]amino}-8-[1-hydroxy-1-(tetrahydro-2H-pyran-4-yl)ethyl]-7-[(trans-4-methylcyclohexyl)methyl] -7H-purin-2-yl)-1,2,4-oxadiazol-5(4H)-one], 4.76 nM. In the case of `C[C@@H](Nc1nc(-c2noc(=O)[nH]2)nc2nc(C3(c4cccnc4)CC3)n(C[C@H]3CC[C@H](C)CC3)c12)C1CCC1` [Example 22.39, 3-[6-{[(1R)-1-cyclobutylethyl]amino}-7-[(trans-4-methylcyclohexyl)methyl] -8-(1-pyridin-3-ylcyclopropyl)-7H-purin-2-yl]-1,2,4-oxadiazol-5(2H)-one], the IC50 was 13.9 nM. Regarding `C[C@@H](Nc1nc(-c2noc(=O)[nH]2)nc2nc(C(C)(O)c3cccnc3)n(C[C@H]3CC[C@H](C)CC3)c12)C1CCC1` (stereo partly drawn) [Example 22.40, 3-(6-{[(1R)-1-cyclobutylethyl]amino}-8-(1-hydroxy-1-pyridin-3-ylethyl)-7-[(trans-4-methylcyclohexyl)methyl] -7H-purin-2-yl)-1,2,4-oxadiazol-5(2H)-one], the IC50 came out at 41.6 nM. For `C[C@@H](Nc1nc(-c2noc(=O)[nH]2)nc2nc(C(O)C3CCCC3)n(C[C@H]3CC[C@H](C)CC3)c12)C1CCC1` (stereo partly drawn) [Example 22.41, 3-(6-{[(1R)-1-cyclobutylethyl]amino}-8-[cyclopentyl(hydroxy)methyl]-7-[(trans-4-methylcyclohexyl)methyl] -7H-purin-2-yl)-1,2,4-oxadiazol-5(2H)-one] the value was 1.21 nM; for `C=C(c1nc2nc(-c3noc(=O)[nH]3)nc(N[C@H](C)C3CCC3)c2n1C[C@H]1CC[C@H](C)CC1)C1CCOCC1` [Example 22.42, 3-(6-{[(1R)-1-cyclobutylethyl]amino}-7-[(trans-4-methylcyclohexyl)methyl] -8-[1-(tetrahydro-2H-pyran-4-yl)ethenyl]-7H-purin-2-yl)-1,2,4-oxadiazol-5(4H)-one], 5.07 nM; for `C[C@@H](Nc1nc(-c2noc(=O)[nH]2)nc2nc(C3(O)CCCCC3)n(C[C@H]3CC[C@H](C)CC3)c12)C1CCC1` [Example 22.43, 3-(6-{[(1R)-1-cyclobutylethyl]amino}-8-(1-hydroxycyclohexyl)-7-[(trans-4-methylcyclohexyl)methyl] -7H-purin-2-yl)-1,2,4-oxadiazol-5(4H)-one], 13.1 nM.

Consider `C[C@@H](Nc1nc(-c2noc(=O)[nH]2)nc2nc(C(C)(C)O)n(C[C@H]3CC[C@H](C)CC3)c12)C1CCC1` [Example 22.44, 3-(6-{[(1R)-1-cyclobutylethyl]amino}-8-(1-hydroxy-1-methylethyl)-7-[(trans-4-methylcyclohexyl)methyl] -7H-purin-2-yl)-1,2,4-oxadiazol-5(4H)-one], for which the IC50 stood at 20.5 nM. As for `CC(C)C(O)c1nc2nc(-c3noc(=O)[nH]3)nc(N[C@H](C)C3CCC3)c2n1C[C@H]1CC[C@H](C)CC1` (stereo partly drawn) [Example 22.45, 3-(6-{[(1R)-1-cyclobutylethyl]amino}-8-(1-hydroxy-2-methylpropyl)-7-[(trans-4-methylcyclohexyl)methyl] -7H-purin-2-yl)-1,2,4-oxadiazol-5(4H)-one], the IC50 amounted to 3.66 nM. As to `C[C@@H](Nc1nc(-c2noc(=O)[nH]2)nc2nc(C3CCCCC3O)n(C[C@H]3CC[C@H](C)CC3)c12)C1CCC1` (stereo partly drawn) [Example 22.46, 3-(6-{[(1R)-1-cyclobutylethyl]amino}-8-(2-hydroxycyclohexyl)-7-[(trans-4-methylcyclohexyl)methyl] -7H-purin-2-yl)-1,2,4-oxadiazol-5(4H)-one], the IC50 was determined as 445 nM. The same measure for `C[C@@H](Nc1nc(-c2noc(=O)[nH]2)nc2nc(C(O)C3CCCC3)n(C[C@H]3CC[C@H](C)CC3)c12)C1CCC1` (stereo partly drawn) [Example 22.47, 3-(6-{[(1R)-1-cyclobutylethyl]amino}-8-[cyclopentyl(hydroxy)methyl]-7-[(trans-4-methylcyclohexyl)methyl] -7H-purin-2-yl)-1,2,4-oxadiazol-5(4H)-one]: 5.04 nM.
